Laboratory results: patent US11718614B2, “Compounds and methods for treatment of hedgehog pathway associated conditions” (Suzhou Mednes Pharma Tech Co., Ltd., priority 2018, dated 2023)

Test system: tumor cells from medulloblastoma developed from mice with deficiency in Patched1 gene
Test: MB assay: survival of medulloblastoma tumor cells by MTT after 48 hours
Assay type: cell-based
Settings: Mus musculus, tumor cells treated 48 hours, cell survival by MTT
Experimental: To test the effect of the novel compounds on the proliferation of tumor cell, we isolated tumor cells from medulloblastoma developed from mice with deficiency in Patched1 gene. Tumor cells were plated in vitro as previously described, and treated with various concentration of compounds for 48 hours. Tumor cells cultured were then harvested to measure cell survival based on MTT assay. The IC50 value for each compound was calculated using Prism the statistical software.
Table 1 below summarizes the IC50 data obtained using MB assay for exemplary compounds of the invention. IC50 values are shown as A, B, C, or D. A represents IC50 value between 1.0 μM and 5.0 μM; B is between 5.0 μM and 10 μM; C is between 10 μM to 20 μM; and D indicates greater than 20 μM.

Structure (SMILES) | IC50 [µM]
COc1ccc2c(c1)nc(C(C)c1ccc(Br)cc1)n2Cc1ccccc1Cl (centres unmarked) [Compound 39] | 5 to 10
COc1ccc2c(c1)nc(C(C)c1ccc(C#N)cc1)n2Cc1ccccc1Cl (centres unmarked) [Compound 40] | > 20
COc1ccc2c(c1)nc(C(C)c1ccc(C(=O)O)cc1)n2Cc1ccccc1Cl (centres unmarked) [Compound 41] | > 20
COC(=O)c1ccc(C(C)c2nc3cc(OC)ccc3n2Cc2ccccc2Cl)cc1 (centres unmarked) [Compound 42] | > 20
COc1ccc2c(c1)nc(C(C)c1ccc(CO)cc1)n2Cc1ccccc1Cl (centres unmarked) [Compound 43] | > 20
COc1ccc2c(c1)nc(C(C)c1ccc(CC#N)cc1)n2Cc1ccccc1Cl (centres unmarked) [Compound 44] | > 20
COc1ccc2c(c1)nc(C(C)c1ccc(CC(=O)O)cc1)n2Cc1ccccc1Cl (centres unmarked) [Compound 45] | > 20
COC(=O)Cc1ccc(C(C)c2nc3cc(OC)ccc3n2Cc2ccccc2Cl)cc1 (centres unmarked) [Compound 46] | 10 to 20
COc1ccc2c(c1)nc(C(C)c1ccc(CCO)cc1)n2Cc1ccccc1Cl (centres unmarked) [Compound 47] | > 20
COc1ccc2c(c1)cc(C(C)c1ccc(CC(C)C)cc1)n2Cc1cccc(Cl)c1 (centres unmarked) [Compound 48] | > 20
CC(C)Cc1ccc(C(C)c2cc3cc(O)ccc3n2Cc2cccc(Cl)c2)cc1 (centres unmarked) [Compound 49] | 1 to 5
COc1ccc2c(c1)nc(-c1ccc(CC(C)C)cc1)n2Cc1ccccc1Cl [Compound 50] | 10 to 20
CC(C)Cc1ccc(-c2nc3cc(O)ccc3n2Cc2ccccc2Cl)cc1 [Compound 51] | 5 to 10
CC(C)Cc1ccc(C(C)c2nc3cc(Br)ccc3n2Cc2ccccc2Cl)cc1 (centres unmarked) [Compound 52] | > 20
CC(C)Cc1ccc(C(C)c2nc3cc(C(=O)O)ccc3n2Cc2ccccc2Cl)cc1 (centres unmarked) [Compound 53] | 10 to 20
COc1ccc2c(c1)c(-c1ccc(CC(C)C)cc1)c(C)n2Cc1ccccc1Cl [Compound 54] | > 20
Cc1c(-c2ccc(CC(C)C)cc2)c2cc(O)ccc2n1Cc1ccccc1Cl [Compound 55] | 1 to 5
COc1ccc2c(c1)c(-c1ccc(CC(C)C)cc1)cn2Cc1ccccc1Cl [Compound 56, 1-(2-chlorobenzyl)-3-(4-isobutylphenyl)-5-methoxy-1H-indole] | > 20
COc1ccc2c(c1)nc(CC(C)(C)C(=O)O)n2Cc1ccccc1Cl [Compound 57] | > 20
COC(=O)C(C)(C)Cc1nc2cc(OC)ccc2n1Cc1ccccc1Cl [Compound 58] | > 20
